“Also recorded” adds a separate entry of the source. Marks after values point to notes of the source that are not given here.
Legend:
[1] = test system: human ovarian tumour cell line A2780; test: growth (tetrazolium dye-based microtitration) cytotoxicity assay, A2780; type: cell-based; details: for IC50: cisplatin-sensitive line, 24 hours drug exposure, 3 day recovery, mean±SEM of triplicate plates; for cytotoxicity (in words): overall statement across A2780, A2780/cp70 and MCP1
Experimental: (§1) Compounds were tested in a growth assay with a 24 hours drug exposure and a 3 day recovery period. Cell lines used were human ovarian tumour cell line A2780 and 2 Cisplatin resistant derivatives cell lines A27080/cp70 and MCP1. IC50 is the concentration of drug required to reduce the surviving cell number to 50% of that of the control untreated cells. Results are from one experiment and are the mean±SEM of the triplicate plates.
(§2) DIP cytotoxicity was determined by a tetrazolium dye-based microtitration assay. DNA affinity measurements of DIPs were undertaken using Isothermal Titration Calorimetry (ITC).

[2] = test system: Cisplatin resistant cell line A2780/cp70; test: growth (tetrazolium dye-based microtitration) cytotoxicity assay, A2780/cp70; type: cell-based, human; details: for IC50: cisplatin-resistant line, 24 hours drug exposure, 3 day recovery, mean±SEM of triplicate plates; for RF1: rapport of the IC50 between A2780 and A2780/cp70, the lower RF the better
Experimental: as §1, §2

[3] = test system: Cisplatin resistant cell line MCP1; test: growth (tetrazolium dye-based microtitration) cytotoxicity assay, MCP1; type: cell-based, human; details: for IC50: cisplatin-resistant line, 24 hours drug exposure, 3 day recovery, mean±SEM of triplicate plates; for RF2: rapport of the IC50 between A2780 and MCP1, the lower RF the better
Experimental: as §1, §2

Salmon DNA = test: DNA affinity by Isothermal Titration Calorimetry (ITC), Salmon DNA; type: binding; design: key to Ka Salmon DNA: *^1: No measurable binding via ITC; details: for DNA affinity (in words): DNA source not given
Experimental: as §2

Calf DNA = test: DNA affinity by Isothermal Titration Calorimetry (ITC), Calf DNA; type: binding; design: key: *^1: No measurable binding via ITC
Experimental: as §2

Row | SMILES | IC50 ([1]; Homo sapiens, A2780) [µM] | IC50 ([2]; Homo sapiens, A2780/CP70) [µM] | RF1 [2] | IC50 ([3]; Homo sapiens) [µM] | RF2 [3] | cytotoxicity (in words) [1] | Ka Salmon DNA (Salmon DNA) | DNA affinity (in words) (Salmon DNA) | Ka Calf DNA (Calf DNA) | cytotoxicity on cisplatin-sensitive cell line A2780 (in words) [1] | melting point | IC50 [1] [µM] | IC50 [2] [µM] | IC50 [3] [µM]
1 | [Br-].[Br-].c1ccc2c(c1)c1[n+](c3ccccc23)CCN1CCNCCN1CC[n+]2c1c1ccccc1c1ccccc12 [LS1-81] | 32.4 ± 2 | 15.1 ± 0.9 | 0.5 | 25.4 ± 2.9 | 0.8 |  |  |  |  |  |  |  |  | 
2 | [Br-].c1ccc(C(CCN2CC[n+]3c2c2ccccc2c2ccccc23)c2ccccc2)cc1 [LS2-10] | 2.06 ± 0.34 | 1.73 ± 0.12 | 0.8 | 2.03 ± 0.31 | 1 |  |  |  |  |  |  |  |  | 
3 | [Br-].[Br-].c1ccc2c(c1)c1[n+](c3ccccc23)CCN1CCN1CCN(CCN2CC[n+]3c2c2ccccc2c2ccccc23)CC1 [AP9-5] | 18.3 ± 2.8 | 5.65 ± 0.2 | 0.3 | 3.94 ± 0.32 | 0.2 |  |  |  |  |  |  |  |  | 
4 | O=C(CN1CC[n+]2c1c1ccccc1c1ccccc12)N1CCN(C(=O)CN2CC[n+]3c2c2ccccc2c2ccccc23)CC1.[Br-].[Br-] [AP8-66] | 11.7 ± 1.1 | 15.6 ± 2.1 | 1.3 | 6.84 ± 0.89 | 0.6 |  |  |  |  |  |  |  |  | 
5 | COc1ccc2c(c[n+](C)c3c4cc5c(cc4ccc23)OCO5)c1OC.[Cl-] [Chelerythrine, reference compound] | 4.63 ± 0.52 | 1.79 ± 0.02 | 0.4 | 2.29 ± 0.15 | 0.5 |  |  |  |  |  |  |  |  | 
6 | COc1ccc(CN2CC[n+]3c2ccc2ccccc23)cc1 [AP4-44, 3-(4-Methoxy-benzyl)-2,3-dihydro-1H-imidazo[1,2-a]quinolin-10-ylium bromide] | 30.9 ± 2.5 | 12.6 ± 0.6 | 0.4 | 11 ± 1 | 0.4 | much less cytotoxicity | *^1 | cancel any measurable DNA affinity | *^1 |  |  |  |  | 
7 | [Br-].[Br-].[Br-].c1ccc2c(c1)c1[n+](c3ccccc23)CCN1[C@H]1C[C@@H](N2CC[n+]3c2c2ccccc2c2ccccc23)C[C@@H](N2CC[n+]3c2c2ccccc2c2ccccc23)C1 [AP3-42] | 8.02 ± 1.14 | 7.29 ± 0.38 | 0.9 | 9.44 ± 0.58 | 1.2 |  |  |  |  |  |  |  |  | 
8 | COC(=O)[C@@H](Cc1ccccc1)N1CC[n+]2c1c1ccccc1c1ccccc12.[Br-] [LS2-6] | 31.2 ± 4.2 | 26.4 ± 3.3 | 0.9 | 34.2 ± 4.3 | 1.1 | moderate activity; also recorded: moderate cytotoxicity in the three lines |  |  |  | moderate cytotoxicity |  |  |  | 
9 | [Br-].c1ccc(CN2CC[n+]3c2c2ccccc2c2ccccc23)cc1 [AP9-45] | 2.32 ± 0.33 | 2.26 ± 0.23 | 1.0 | 1.29 ± 0.11 | 0.6 |  |  |  |  |  |  |  |  | 
10 | CCCN1CC[n+]2c1c1ccccc1c1ccccc12 [AP10-22, 1-Propyl-2,3-dihydro-1H-imidazo[1,2-f]phenanthridin-4-ylium bromide] | 6.71 ± 0.86 | 5.11 ± 0.19 | 0.8 | 2.86 ± 0.32 | 0.4 | the least active of all the alkyl DIP derivatives | 3.11 ± 2203 M^−1 (10^4) |  | 3.67 ± 1310 M^−1 (10^4) |  |  |  |  | 
11 | COc1ccc(CSCC[n+]2cc3ccccc3c3ccccc32)cc1.[Br-] |  |  |  |  |  |  |  |  |  |  | 182 to 183 °C |  |  | 
12 | [Br-].[Br-].[Br-].c1ccc2c(c1)c[n+](CCN1CCCN(CC[n+]3cc4ccccc4c4ccccc43)CCCN(CC[n+]3cc4ccccc4c4ccccc43)CCC1)c1ccccc21 [AP4-55] | 2.28 ± 0.23 | 1.59 ± 0.15 | 0.7 | 1.13 ± 0.12 | 0.5 | good cytotoxicity |  |  |  |  |  |  |  | 
13 | COc1ccc(CN2CC[n+]3c2c2ccccc2c2cc(Br)ccc23)cc1.[Br-] [LS1-72] | 0.823 ± 0.219 | 1.67 ± 0.18 | 2 | 0.997 ± 0.034 | 1.2 |  |  |  |  |  |  |  |  | 
14 | [Br-].c1ccc2c(c1)c[n+](CCN1CCCCC1)c1ccccc21 |  |  |  |  |  |  |  |  |  |  | 167 to 168 °C |  |  | 
15 | COc1ccc(N2CC[n+]3c2c2ccccc2c2ccccc23)cc1.[Br-] [AP3-83] | 1.45 ± 0.15 | 1.1 ± 0.13 | 0.8 | 0.5 ± 0.04 | 0.3 |  | 3.73 ± 1827 M^−1 (10^4) |  | 3.46 ± 1726 M^−1 (10^4) |  |  |  |  | 
16 | CCc1ccc(N2CC[n+]3c2c2ccccc2c2ccccc23)cc1.[Br-] [LS2-11] | 1.54 ± 0.12 | 1.25 ± 0.14 | 0.8 | 1.11 ± 0.16 | 0.7 |  |  |  |  |  |  |  |  | 

Row | SMILES | IC50 ([1]; Homo sapiens, A2780) [µM] | IC50 ([2]; Homo sapiens, A2780/CP70) [µM] | RF1 [2] | IC50 ([3]; Homo sapiens) [µM] | RF2 [3] | cytotoxicity (in words) [1] | Ka Salmon DNA (Salmon DNA) | DNA affinity (in words) (Salmon DNA) | Ka Calf DNA (Calf DNA) | cytotoxicity on cisplatin-sensitive cell line A2780 (in words) [1] | melting point | IC50 [1] [µM] | IC50 [2] [µM] | IC50 [3] [µM]
17 | CC[n+]1c(-c2ccccc2)c2cc(N)ccc2c2ccc(N)cc21.[Br-] [EtBr, ethidium bromide, reference compound] | 0.3 ± 0.039 | 0.658 ± 0.118 | 2.2 | 0.45 ± 0.008 | 1.5 |  | 12.9 ± 4533 M^−1 (10^4) |  | 9.31 ± 3353 M^−1 (10^4) |  |  |  |  | 
18 | [Br-].c1ccc2c(c1)c[n+](CCN1CCCCC1)c1ccccc21 [AP4-20] | 9.77 ± 1.04 | 16.5 ± 0.8 | 1.7 | 6.3 ± 0.09 | 0.6 |  |  |  |  |  |  |  |  | 
19 | Br.Br.Br.O=C(CN1CC[n+]2c1c1ccccc1c1ccccc12)N1CCCN(C(=O)CN2CC[n+]3c2c2ccccc2c2ccccc23)CCCN(C(=O)CN2CC[n+]3c2c2ccccc2c2ccccc23)CCC1 [AP9-82] | 15.6 ± 2.76 | 4.57 ± 0.18 | 0.3 | 7.59 ± 0.32 | 0.5 |  |  |  |  |  |  |  |  | 
20 | N.N.[Cl][Pt][Cl] [Cisplatin, reference compound] |  |  | 5.8 |  | 1.7 |  |  |  |  |  |  | 0.25 ± 0.02 | 1.46 ± 0.04 | 0.43 ± 0.06
21 | [Br-].[Br-].c1ccc2c(c1)c[n+](CCN1CCN(CC[n+]3cc4ccccc4c4ccccc43)CC1)c1ccccc21 |  |  |  |  |  |  |  |  |  |  | 260 to 261 °C |  |  | 
22 | [Br-].c1ccc2c(c1)c1[n+](c3ccccc23)CCN1C1CC1 [AP3-80] | 5.07 ± 1.06 | 4.54 ± 0.7 | 0.9 | 5.68 ± 0.86 | 1.1 |  |  |  |  |  |  |  |  | 
23 | C[C@H](CO)N1CC[n+]2c1c1ccccc1c1ccccc12.[Br-] [LS1-52] | 2.86 ± 0.37 | 8.43 ± 0.37 | 3 | 4.77 ± 0.09 | 1.7 |  | 1.73 ± 989.3 M^−1 (10^4) |  | 1.42 ± 785 M^−1 (10^4) |  |  |  |  | 
24 | Br.Br.c1ccc2c(c1)c[n+](CCN1CCN(CC[n+]3cc4ccccc4c4ccccc43)CC1)c1ccccc21 [AP4-48] | 18.4 ± 1.23 | 16.8 ± 0.54 | 0.9 | 11.7 ± 1.51 | 0.6 |  |  |  |  |  |  |  |  | 
25 | CC(C)N1CC[n+]2c1c1ccccc1c1ccccc12.[Br-] |  |  |  |  |  |  |  |  |  |  | 250 to 251 °C (dec.) |  |  | 
26 | Br.Br.Br.Br.c1ccc2c(c1)c1[n+](c3ccccc23)CCN1CC[N+]12CC[N+](CCN3CC[n+]4c3c3ccccc3c3ccccc34)(CC1)CC2 [AP11-36] | 2.34 ± 0.25 | 3.4 ± 0.23 | 1.5 | 3.07 ± 0.52 | 1.3 |  |  |  |  |  |  |  |  | 
27 | COC(=O)CN1CC[n+]2c1c1ccccc1c1ccccc12.[Br-] [LS1-8] | 48.4 ± 8.5 | 54.9 ± 3.4 | 1.1 | 33 ± 1.6 | 0.7 | moderate activity |  |  |  |  |  |  |  | 
28 | OCCN1CC[n+]2c1c1ccccc1c1ccccc12.[Br-] [AP6-5] | 11.7 ± 1.2 | 13.7 ± 1.5 | 1.2 | 7.8 ± 1.47 | 0.7 |  | 1.84 ± 660 M^−1 (10^4) |  | 1.53 ± 838.9 M^−1 (10^4) |  |  |  |  | 
29 | COc1ccc(CN2CC[n+]3c2c2ccccc2c2ccccc23)cc1.[Br-] [AP3-56, 1-(4-Methoxy-benzyl)-2,3-dihydro-1H-imidazo[1,2-f]phenanthridinium bromide] | 1.53 ± 0.09 | 1.56 ± 0.06 | 1.0 | 1.06 ± 0.06 | 0.7 |  |  |  |  |  |  |  |  | 
30 | COC(=O)[C@H](Cc1ccccc1)N1CC[n+]2c1c1ccccc1c1ccccc12.[Br-] [AP8-56] | 35.8 ± 4.2 | 21.6 ± 1.8 |  | 20 ± 1.2 |  | moderate activity | *^1 | does not have any measurable binding property | *^1 | moderate cytotoxicity |  |  |  | 
31 | COc1ccc([C@@H](C)N2CC[n+]3c2c2ccccc2c2ccccc23)cc1 [AP6-96, 1-[1-(4-Methoxy-phenyl)-ethyl]-2,3-dihydro-1H-imidazo[1,2-f]phenanthridin-4-ylium bromide] | 1.03 ± 0.06 | 1.15 ± 0.07 | 1.1 | 0.53 ± 0.04 | 0.5 |  | 5.17 ± 1948 M^−1 (10^4) |  | 4.14 ± 2685 M^−1 (10^4) |  |  |  |  | 
